This note sets out measurements from ChEMBL document CHEMBL4825686, “HTS-based discovery and optimization of novel positive allosteric modulators of the α7 nicotinic acetylcholine receptor” (Eur J Med Chem, 2021).

Values after ≈ are worked out from the molar mass of the structure shown. Active and inactive are the calls of the source. The calls are words filed in the database; no cut-off is given here.

The target in data set [1] is T1, Neuronal acetylcholine receptor subunit alpha-7 (Homo sapiens, UniProt P36544). The data set can be described thus: Positive allosteric modulator activity at human alpha7 nAChR expressed in Flp-In-HEK293 cells co-expressing RIC-3 assessed as potentiation of PNU282987-induced calcium influx at 10 uM measured after 10 mins by FLIPR assay. It is filed as cell-based.

A short description of data set [2]: Mutagenicity in Salmonella typhimurium TA1537 in absence of rat liver S9 fraction by AMES test. It is filed as toxicity. The settings on record: salmonella enterica subsp. enterica serovar typhimurium.
A short description of data set [3]: Metabolic stability in Wistar rat liver microsomes assessed as intrinsic clearance at 1 uM measured per mg protein upto 40 mins. Type of data set: ADME, Microsome. The note with it: read-out: CLH. On the technique in general: Liver microsomes are a subcellular fraction often used to study metabolism.
Data set [4] can be described thus: Metabolic stability in human liver microsomes assessed as intrinsic clearance at 1 uM measured per mg protein upto 40 mins. It is filed as ADME, Microsome. The note with it: read-out: CLH.
Data set [5] in a line: Mutagenicity in Salmonella typhimurium TA1535 in presence of rat liver S9 fraction by AMES test. It is filed as toxicity, subcellular. The settings on record: salmonella enterica subsp. enterica serovar typhimurium.
The target in data set [6] is T1, Neuronal acetylcholine receptor subunit alpha-7. Kind of data set: Positive allosteric modulator activity at human alpha7 nAChR expressed in Flp-In-HEK293 cells co-expressing RIC-3 assessed as potentiation of PNU282987-induced calcium influx measured after 10 mins by FLIPR assay. The settings on record: read-out: EC50. Type of data set: cell-based, Flp-In-293.
Data set [7] can be described thus: Mutagenicity in Escherichia coli WP2 uvrA in presence of rat liver S9 fraction by AMES test. Type of data set: toxicity, subcellular.
The nature of data set [8]: Kinetic solubility of compound. It is filed as physicochemical. The settings on record: read-out: Kinetic_solubility.
The nature of data set [9]: Metabolic stability in NMRI mouse liver microsomes assessed as intrinsic clearance at 1 uM measured per mg protein upto 40 mins. It is filed as ADME, Microsome. The settings on record: read-out: CLH.
Data set [10] is described as follows: Mutagenicity in Salmonella typhimurium TA1537 in presence of rat liver S9 fraction by AMES test. The settings on record: salmonella enterica subsp. enterica serovar typhimurium. It is filed as toxicity, subcellular.
A short description of data set [11]: Mutagenicity in Salmonella typhimurium TA1535 in absence of rat liver S9 fraction by AMES test. The note with it: salmonella enterica subsp. enterica serovar typhimurium. It is filed as toxicity.
A short description of data set [12]: Mutagenicity in Salmonella typhimurium TA100 in absence of rat liver S9 fraction by AMES test. The settings on record: salmonella enterica subsp. enterica serovar typhimurium. It is filed as toxicity.
Data set [13] can be described thus: Mutagenicity in Escherichia coli WP2 uvrA in absence of rat liver S9 fraction by AMES test. Type of data set: toxicity.
Data set [14] can be described thus: Mutagenicity in Salmonella typhimurium TA100 in presence of rat liver S9 fraction by AMES test. It is filed as toxicity, subcellular. The note with it: salmonella enterica subsp. enterica serovar typhimurium.
Data set [15] in a line: Mutagenicity in Salmonella typhimurium TA98 in presence of rat liver S9 fraction by AMES test. It is filed as toxicity, subcellular. The settings on record: salmonella enterica subsp. enterica serovar typhimurium.
A short description of data set [16]: Mutagenicity in Salmonella typhimurium TA98 in absence of rat liver S9 fraction by AMES test. Type of data set: toxicity. The settings on record: salmonella enterica subsp. enterica serovar typhimurium.
The target of data set [17] is T1, Neuronal acetylcholine receptor subunit alpha-7. The data set can be described thus: Positive allosteric modulator activity at human alpha7 nAChR expressed in Flp-In-HEK293 cells co-expressing RIC-3 assessed as potentiation of PNU282987-induced calcium influx at 1 uM measured after 10 mins by FLIPR assay. It is filed as cell-based. The note with it: Flp-In-293.

A short description of data set [18]: Drug uptake in NMRI mouse brain at 10 mg/kg, ip measured after 1 hr by HPLC-MS/MS analysis. It is filed as ADME, organism-based. The note with it: read-out: Ct.
The nature of data set [19]: Ratio of drug level in NMRI mouse brain to plasma at 1 mg/kg, ip measured after 1 hr by HPLC-MS/MS analysis. The note with it: read-out: BPR. Type of data set: ADME, organism-based.
The nature of data set [20]: Ratio of drug level in NMRI mouse brain to plasma at 10 mg/kg, ip measured after 1 hr by HPLC-MS/MS analysis. The note with it: read-out: BPR. Type of data set: ADME, organism-based.
Data set [21] is described as follows: Drug uptake in NMRI mouse brain at 1 mg/kg, ip measured after 1 hr by HPLC-MS/MS analysis. Type of data set: ADME, organism-based. The note with it: read-out: Ct.
Data set [22] is described as follows: Drug uptake in NMRI mouse brain at 3 mg/kg, ip measured after 1 hr by HPLC-MS/MS analysis. It is filed as ADME, organism-based. The note with it: read-out: Ct.
The nature of data set [23]: Plasma concentration in NMRI mouse at 10 mg/kg, ip measured after 1 hr by HPLC-MS/MS analysis. It is filed as ADME, organism-based.
The nature of data set [24]: Ratio of drug level in NMRI mouse brain to plasma at 3 mg/kg, ip measured after 1 hr by HPLC-MS/MS analysis. The settings on record: read-out: BPR. Type of data set: ADME, organism-based.
A short description of data set [25]: Plasma concentration in NMRI mouse at 3 mg/kg, ip measured after 1 hr by HPLC-MS/MS analysis. Type of data set: ADME, organism-based.
For the next data set, the system named is Mus musculus. The data set can be described thus: Cognitive enhancing effect in scopolamine-induced amnesia NMRI mouse model assessed as increase in recognition index at 1 to 10 mg/kg, ip administered 30 mins prior to scopolamine injection by Y-maze test. The settings on record: dose 1-10 mg/kg. Type of data set: functional, organism-based.
Data set [26] in a line: Plasma concentration in NMRI mouse at 1 mg/kg, ip measured after 1 hr by HPLC-MS/MS analysis. It is filed as ADME, organism-based.
Where [27] appears, read: Flp-In-293, filed as positive allosteric modulator.

T1 sequence (P36544 whole entry): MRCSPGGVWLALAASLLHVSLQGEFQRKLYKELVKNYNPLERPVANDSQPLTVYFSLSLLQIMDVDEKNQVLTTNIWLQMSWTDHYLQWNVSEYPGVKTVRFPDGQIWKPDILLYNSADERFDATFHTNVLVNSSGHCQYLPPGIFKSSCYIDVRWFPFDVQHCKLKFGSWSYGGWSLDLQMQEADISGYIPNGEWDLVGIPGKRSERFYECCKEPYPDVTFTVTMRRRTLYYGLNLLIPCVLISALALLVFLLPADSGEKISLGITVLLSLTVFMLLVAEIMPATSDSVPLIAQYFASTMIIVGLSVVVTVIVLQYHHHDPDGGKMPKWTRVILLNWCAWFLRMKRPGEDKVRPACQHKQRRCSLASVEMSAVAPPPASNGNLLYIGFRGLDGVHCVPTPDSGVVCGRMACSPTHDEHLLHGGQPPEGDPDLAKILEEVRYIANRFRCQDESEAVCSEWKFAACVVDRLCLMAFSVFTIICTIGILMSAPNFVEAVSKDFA

Regarding `Cc1ccc(CN2CCC(C(=O)NCc3ccc4c(ccn4C)c3)CC2)cc1`, the Activity in [1] (Flp-In-293) was found to be 12%.
On to `Cc1ccc(CN2CCN(C(=O)C(=O)Nc3cc(F)c4[nH]ccc4c3)CC2)cc1`, for which the Activity result in [2], in [5], in data set [7], in data set [10], in data set [11] and in data set [12] was “Toxic” throughout. For the same compound, the Activity result in [13], in [14], in data set [15] and in data set [16] was “Toxic” each time. In addition, the microsomal CLint at 1 µM in [3] came out at 130 µL/min/mg; in [4] it was 17 µL/min/mg; in data set [9] it was 151 µL/min/mg. In addition, the EC50 in [6] was 110 nM. In data set [8], the solubility kinetic stood at 42.7 µM (≈ 16.8 µg/mL).
With `Cc1ccc(O[C@H]2CC[C@@H](C(=O)NCc3ccc4c(ccn4C)c3)CC2)cc1`, the Activity in data set [17] is 16%.
In the case of `Cc1ccc(OC2CCCN(C(=O)C(=O)Nc3ccc4c(ccn4C)c3)CC2)cc1` (stereo not given), the Activity in data set [17] was 13%.
As to `Cc1ccc(Oc2ccc(C(=O)C(=O)Nc3ccc4c(ccn4C)c3)cn2)cc1`, the concentration at 1 h in data set [18] was found to be 1930 nM; in [21] it was 108 nM; in data set [22], 492 nM; in data set [23], 1260 nM; in data set [25], 417 nM; in [26] it was 104 nM. The Kp at 1 h was 1.05 in data set [19], 1.53 in data set [20] and 1.17 in data set [24]. The microsomal CLint at 1 µM in [3] turned out to be 59 µL/min/mg; in data set [4], 51 µL/min/mg; in data set [9], 33 µL/min/mg. The EC50 in data set [6] worked out at 130 nM. Further, in data set [8], the solubility kinetic is 3 µM (≈ 1.16 µg/mL). Moreover, the result in the data set on Mus musculus was Active.
On to `Cc1ccc(OC2CN(C(=O)C(=O)Nc3ccc4c(ccn4C)c3)C2)cc1`, for which, in data set [1] (setting [27]), the Activity amounted to 47%.
On to `Cc1ccc(OC2CCN(C(=O)C(=O)Nc3ccc4c(ccn4C)c3)C2)cc1` (stereo not given), for which, in data set [1] (Flp-In-293), the Activity stood at 25%.
On to `Cc1ccc(CN2CCN(C(=O)C(=O)Nc3ccc4c(c3)c(C)cn4C)CC2)cc1`, for which the Activity result in data set [2], in data set [5], in data set [7], in [10], in [11] and in data set [12] was “Toxic” throughout. Besides, the Activity result in data set [13], in data set [14], in data set [15] and in [16] was “Toxic” in each case. Moreover, the figures for the microsomal CLint at 1 µM in [3], in data set [4] and in data set [9] were 140 µL/min/mg, 17 µL/min/mg and 198 µL/min/mg, respectively. The EC50 in [6] is 920 nM. For the same compound, the solubility kinetic in data set [8] was 5 µM (≈ 2.02 µg/mL).
As to `Cc1ccc(CN2CCN(C(=O)C(=O)Cc3ccc4c(ccn4C)c3)CC2)cc1`, in data set [1] (Flp-In-293), the Activity came to 7%.
In the case of `Cc1ccc(OC2CCN(C(=O)C(=O)Nc3ccc4c(ccn4C)c3)CC2)cc1`, the concentration at 1 h in data set [18] was found to be 1290 nM; in data set [21], 120 nM; in [22], 297 nM; in data set [23] it was 653 nM; in data set [25] it was 170 nM; in data set [26] it was 63 nM. The values for the Kp at 1 h in data set [19], in data set [20] and in data set [24] were 1.95, 1.96 and 1.74, respectively. For the same compound, the EC50 in data set [6] was determined as 120 nM. Besides, in the data set on Mus musculus, the outcome was Active.
As for `Cc1ccc(CC2CCN(C(=O)NC(=O)c3ccc4c(ccn4C)c3)CC2)cc1`, the Activity in [1] (Flp-In-293) is 37%.
On to `Cc1ccc(CN2CCN(C(=O)C(=O)Nc3ccc4[nH]c(C)c(C)c4c3)CC2)cc1`, for which the Activity entry in data set [2], in [5], in data set [7], in [10], in data set [11] and in data set [12] was “Toxic” each time. In addition, the Activity entry is “Toxic” in data set [13]; “Toxic” in [14]; “Toxic” in data set [15]; “Toxic” in data set [16]; 10% in data set [1] (Flp-In-293). Also, the microsomal CLint at 1 µM stood at 56 µL/min/mg in data set [3], 13 µL/min/mg in data set [4] and 151 µL/min/mg in data set [9]. The solubility kinetic in data set [8] turned out to be 23 µM (≈ 9.3 µg/mL).
Take `Cn1ccc2cc(NC(=O)C(=O)c3cnn(Cc4ccc(Cl)cc4)c3)ccc21`: the solubility kinetic in data set [8] stood at 3 µM (≈ 1.18 µg/mL). Further, the Activity in data set [1] (setting [27]) came out at 52%.
As for `Cc1ccc(CN2CCN(C(=O)C(=O)Nc3ccc4c(c3)c(F)cn4C)CC2)cc1`, the Activity entry in [2], in data set [5], in data set [7], in data set [10], in data set [11] and in data set [12] was “Toxic” each time. Besides, the Activity entry in [13], in data set [14], in data set [15] and in data set [16] was “Toxic” each time. Moreover, the microsomal CLint at 1 µM in [3] was 192 µL/min/mg; in data set [4], 21 µL/min/mg; in [9], 214 µL/min/mg. The EC50 in data set [6] is 85 nM. For the same compound, in [8], the solubility kinetic was 16.5 µM (≈ 6.74 µg/mL).

The EC50 is the concentration that produces a half-maximal response.
